The term melting point denotes the temperature of the solid-liquid transition.

15 molecules from US20080227790A1, “Pyridazinone Derivatives and their Use as Pde4 Inhibitors” (Altana Pharma AG, priority 2004, published 2008) can be followed below.

One data set has as its target T1, PDE4B2 (Homo sapiens, UniProt Q07343).
T1 construct: made in house; host or cells: SF21 insect cells (baculovirus prepared in SF9 cells; pCR-Bac vector)
Nature of the data set: Inhibition of PDE4B2 activity, modified [3H]cAMP SPA enzyme assay. Type of data set: biochemical. As to conditions: recombinant PDE4B2 (GB no. M97515) expressed in SF21 cells; 0.5 μM cAMP; 15 min at 37° C.; read-out: PDE4 Inhibition [measured as −logIC50 (mol/l)] (converted). The procedure:
PDE4B2 (GB no. M97515) was a gift of Prof. M. Conti (Stanford University, USA). It was amplified from the original plasmid (pCMV5) via PCR with primers Rb9 (5′-[…]-3′) and Rb10 (5′-[…]-3′) and cloned into the pCR-Bac vector (Invitrogen, Groningen, NL).
The recombinant baculovirus was prepared by means of homologous recombination in SF9 insect cells. The expression plasmids were cotransfected with Bac-N-Blue (Invitrogen, Groningen, NL) or Baculo-Gold DNA (Pharmingen, Hamburg) using a standard protocol (Pharmingen, Hamburg). Wt virus-free recombinant virus supernatants were selected using plaque assay methods. After that, high-titre virus supernatants were prepared by amplifying 3 times. PDE4B2 was expressed in SF21 cells by infecting 2×10^6 cells/ml with an MOI (multiplicity of infection) between 1 and 10 in serum-free SF900 medium (Life Technologies, Paisley, UK). The cells were cultured at 28° C. for 48-72 hours, after which they were pelleted for 5-10 min at 1000 g and 4° C.
The SF21 insect cells were resuspended, at a concentration of approx. 10^7 cells/ml, in ice-cold (4° C.) homogenization buffer (20 mM Tris, pH 8.2, containing the following additions: 140 mM NaCl, 3.8 mM KCl, 1 mM EGTA, 1 mM MgCl2, 10 mM β-mercaptoethanol, 2 mM benzamidine, 0.4 mM Pefablock, 10 μM leupeptin, 10 μM pepstatin A, 5 μM trypsin inhibitor) and disrupted by ultrasonication. The homogenate was then centrifuged for 10 min at 1000×g and the supernatant was stored at −80° C. until sub-sequent use (see below). The protein content was determined by the Bradford method (BioRad, Munich) using BSA as the standard.
PDE4B2 activity was inhibited by the compounds according to the invention in a modified SPA (scintillation proximity assay) test, supplied by Amersham Biosciences (see procedural instructions “phosphodiesterase [3H]cAMP SPA enzyme assay, code TRKQ 7090”), carried out in 96-well microtitre plates (MTP's). The test volume is 100 μl and contains 20 mM Tris buffer (pH 7.4), 0.1 mg of BSA (bovine serum albumin)/ml, 5 mM Mg^2+, 0.5 μM cAMP (including about 50,000 cpm of [3H]cAMP), 1 μl of the respective substance dilution in DMSO and sufficient recombinant PDE (1000×g supernatant, see above) to ensure that 10-20% of the cAMP is converted under the said experimental conditions. […] After a preincubation of 5 min at 37° C., the reaction is started by adding the substrate (cAMP) and the assays are incubated for a further 15 min; after that, they are stopped by adding SPA beads (50 μl). In accordance with the manufacturer's instructions, the SPA beads had previously been resuspended in water, but were then diluted 1:3 (v/v) in water; the diluted solution also contains 3 mM IBMX to ensure a complete PDE activity stop. After the beads have been sedimented (>30 min), the MTP's are analyzed in commercially available luminescence detection devices. The corresponding IC50 values of the compounds for the inhibition of PDE4B2 activity are determined from the concentration-effect curves by means of non-linear regression.

T1 sequence (Q07343 1-564 isoform Q07343-2): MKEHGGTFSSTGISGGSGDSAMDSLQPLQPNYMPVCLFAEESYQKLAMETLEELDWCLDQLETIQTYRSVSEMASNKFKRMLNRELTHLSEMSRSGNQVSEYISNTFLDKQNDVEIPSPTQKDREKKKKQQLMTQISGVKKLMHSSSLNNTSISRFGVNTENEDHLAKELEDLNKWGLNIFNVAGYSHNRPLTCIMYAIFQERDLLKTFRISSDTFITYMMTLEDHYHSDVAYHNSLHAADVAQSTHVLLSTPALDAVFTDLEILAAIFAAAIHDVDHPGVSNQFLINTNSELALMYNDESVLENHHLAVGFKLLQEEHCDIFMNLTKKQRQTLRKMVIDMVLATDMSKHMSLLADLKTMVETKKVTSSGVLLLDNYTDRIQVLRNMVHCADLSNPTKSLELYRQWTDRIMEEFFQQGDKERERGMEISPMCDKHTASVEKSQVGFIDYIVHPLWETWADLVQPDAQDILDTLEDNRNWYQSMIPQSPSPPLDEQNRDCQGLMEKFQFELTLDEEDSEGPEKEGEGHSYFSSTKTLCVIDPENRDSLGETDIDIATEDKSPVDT

`COc1ccc(C2=NN(c3ccc(N4CCOCC4)cc3)C(=O)C(C)(C)C2)cc1OC` [Compound 16, 6-(3,4-Dimethoxy-phenyl)-4,4-dimethyl-2-(4-morpholin-4-yl-phenyl)-4,5-dihydro-2H-pyridazin-3-one] yielded a melting point of 178 to 179 °C. The molecule `COc1ccc(C2=NN(c3cccc(C(=O)O)c3)C(=O)C(C)(C)C2)cc1OC` [Compound 11, 3-[3-(3,4-Dimethoxy-phenyl)-5,5-dimethyl-6-oxo-5,6-dihydro-4H-pyridazin-1-yl]-benzoic acid] returned a melting point of 165 to 167 °C. In the case of `COc1ccc(C2=NN(c3ccc(OCC(N)=O)cc3)C(=O)C(C)(C)C2)cc1OC` [Compound 7, 2-{4-[3-(3,4-Dimethoxy-phenyl)-5,5-dimethyl-6-oxo-5,6-dihydro-4H-pyridazin-1-yl]-phenoxy}-acetamide], the melting point was in the range of 184 to 187 °C. Moreover, the IC50 on PDE4B2 is 10.5 nM. In turn, `COc1ccc(C2=NN(c3ccc(Br)cc3)C(=O)C(C)(C)C2)cc1OC` [Compound 15, 2-(4-Bromo-phenyl)-6-(3,4-dimethoxy-phenyl)-4,4-dimethyl-4,5-dihydro-2H-pyridazin-3-one] registered a melting point of 123 to 124 °C. Take `COc1ccc(C2=NN(c3ccc(C(=O)N4CCN(CCN5CCOCC5)CC4)cc3)C(=O)C(C)(C)C2)cc1OC.Cl.Cl` [Compound 3, 6-(3,4-Dimethoxy-phenyl)-4,4-dimethyl-2-(4-{1-[4-(2-morpholin-4-yl-ethyl)-piperazin-1-yl]-methanoyl}-phenyl)-4,5-dihydro-2H-pyridazin-3-one dihydrochloride]: the melting point is 249 °C (dec.). Moreover, the IC50 on PDE4B2 is 11.2 nM.

As for `COc1ccc(C2=NN(c3ccc(OCc4ccccc4)cc3)C(=O)C(C)(C)C2)cc1OC` [Compound 2, 2-(4-Benzyloxy-phenyl)-6-(3,4-dimethoxy-phenyl)-4,4-dimethyl-4,5-dihydro-2H-pyridazin-3-one], the melting point lay in the range of 137 to 138 °C. Further, the IC50 at PDE4B2 was 3.98 nM.

`COc1ccc(C2=NN(c3cccc(C(=O)N4CCOCC4)c3)C(=O)C(C)(C)C2)cc1OC` [Compound 13, 6-(3,4-Dimethoxy-phenyl)-4,4-dimethyl-2-[3-(1-morpholin-4-yl-methanoyl)-phenyl]-4,5-dihydro-2H-pyridazin-3-one] came in with a melting point of 108 to 109 °C. Take `COc1ccc(C2=NN(c3ccc(C(=O)N4CCN(c5ccncc5)CC4)cc3)C(=O)C(C)(C)C2)cc1OC.Cl.Cl` [Compound 4, 6-(3,4-Dimethoxy-phenyl)-4,4-dimethyl-2-{4-[1-(4-pyridin-4-yl-piperazin-1-yl)-methanoyl]-phenyl}-4,5-dihydro-2H-pyridazin-3-one dihydrochloride]: the melting point fell in the range of 223 to 225 °C. In addition, the IC50 on PDE4B2 is 7.76 nM. Taken in the same sequence, the figures for `COc1ccc(C2=NN(c3ccc(OCC(=O)N4CCOCC4)cc3)C(=O)C(C)(C)C2)cc1OC` [Compound 10, 6-(3,4-Dimethoxy-phenyl)-4,4-dimethyl-2-[4-(2-morpholin-4-yl-2-oxo-ethoxy)-phenyl]-4,5-dihydro-2Hpyridazin-3-one] were 74 to 79 °C and 15.5 nM. `COc1ccc(C2=NN(c3ccc(OCC(=O)N4CCN(C)CC4)cc3)C(=O)C(C)(C)C2)cc1OC.Cl` [Compound 9, 6-(3,4-Dimethoxy-phenyl)-4,4-dimethyl-2-{4-[2-(4-methyl-piperazin-1-yl)-2-oxo-ethoxy]-phenyl}-4,5-dihydro-2H-pyridazin-3-one hydrochloride] yielded a melting point of 198 to 202 °C.

In turn, `COc1ccc(C2=NN(c3ccc(C(=O)N4CCN(CC(=O)N5CCCC5)CC4)cc3)C(=O)C(C)(C)C2)cc1OC.Cl` [Compound 8, 6-(3,4-Dimethoxy-phenyl)-4,4-dimethyl-2-(4-{1-[4-(2-oxo-2-pyrrolidin-1-yl-ethyl)-piperazin-1-yl]-methanoyl}-phenyl)-4,5-dihydro-2H-pyridazin-3-one hydrochloride] displayed a melting point of 144 to 146 °C. Further, the IC50 on PDE4B2 is 7.59 nM. `COc1ccc(C2=NN(c3ccc(C(=O)N4CCOCC4)cc3)C(=O)C(C)(C)C2)cc1OC` [Compound 6, 6-(3,4-Dimethoxy-phenyl)-4,4-dimethyl-2-[4-(1-morpholin-4-yl-methanoyl)-phenyl]-4,5-dihydro-2H-pyridazin-3-one] came in with a melting point of 165 to 166 °C. Also, the IC50 at PDE4B2 was 1.74 nM. On the same counts, the results for `COc1ccc(C2=NN(c3ccc(C(=O)O)cc3)C(=O)C(C)(C)C2)cc1OC` [Compound 1, 4-(3-{3,4-dimethoxyphenyl}-5,5-dimethyl-6-oxo-5,6-dihydro-4H-pyridazin-1-yl)-benzoic acid] are 196 to 198 °C and 32.4 nM. Turning to `COc1ccc(C2=NN(c3ccc(CC(=O)N4CCOCC4)cc3)C(=O)C(C)(C)C2)cc1OC` [Compound 14, 6-(3,4-Dimethoxy-phenyl)-4,4-dimethyl-2-[4-(2-morpholin-4-yl-2-oxo-ethyl)-phenyl]-4,5-dihydro-2H-pyridazin-3-one], the melting point lay within 165 to 167 °C.

In turn, `COc1ccc(C2=NN(c3ccc(O)cc3)C(=O)C(C)(C)C2)cc1OC` [Compound 5, 6-(3,4-Dimethoxy-phenyl)-2-(4-hydroxy-phenyl)-4,4-dimethyl-4,5-dihydro-2H-pyridazin-3-one] came in with a melting point of 176 to 178 °C. The IC50 on PDE4B2 is 6.03 nM.
